Like-named read-outs stand apart in the source and are kept apart here.

What all share (experiment): Off-target screening (CEREP)
What all share (assay type): binding
What all share (settings): read-out: percent inhibition

For one assay, the target named is T1, 5-HT transporter (Homo sapiens, UniProt P31645).
T1 construct: purchased Eurofins CEREP SA
On the procedure: (§1) Supplementary Table 1 │ Off-target activity screening f or MCP compou nds […]
(§2) The assays given in the table above were conducted at Eurofins CEREP S A (Celle-Lévescault, France) and were run as single point measurements in duplicates in the presence of 10 µ M of the test compound and reported as percent inhibition of the radioligand signal or control enzymatic activity. n.d., not

The next assay concerns the target T2, 5HT1A (Homo sapiens, UniProt P08908).
T2 construct: purchased Eurofins CEREP SA
T2 sequence (P08908 1-422): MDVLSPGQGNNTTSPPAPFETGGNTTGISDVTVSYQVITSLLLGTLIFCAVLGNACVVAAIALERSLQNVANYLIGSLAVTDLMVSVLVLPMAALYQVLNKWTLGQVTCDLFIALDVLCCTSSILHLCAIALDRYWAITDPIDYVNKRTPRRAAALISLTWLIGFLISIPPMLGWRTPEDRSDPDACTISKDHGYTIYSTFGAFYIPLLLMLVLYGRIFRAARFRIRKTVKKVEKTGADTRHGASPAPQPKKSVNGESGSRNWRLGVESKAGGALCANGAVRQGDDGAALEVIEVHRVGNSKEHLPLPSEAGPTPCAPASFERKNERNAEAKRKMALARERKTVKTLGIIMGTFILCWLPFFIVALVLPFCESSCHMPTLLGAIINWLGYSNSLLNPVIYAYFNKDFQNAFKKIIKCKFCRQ
On the procedure:
as §1, §2

The target of the next assay is T3, 5HT2A (Homo sapiens, UniProt P28223).
T3 construct: purchased Eurofins CEREP SA
T3 sequence (P28223 whole entry): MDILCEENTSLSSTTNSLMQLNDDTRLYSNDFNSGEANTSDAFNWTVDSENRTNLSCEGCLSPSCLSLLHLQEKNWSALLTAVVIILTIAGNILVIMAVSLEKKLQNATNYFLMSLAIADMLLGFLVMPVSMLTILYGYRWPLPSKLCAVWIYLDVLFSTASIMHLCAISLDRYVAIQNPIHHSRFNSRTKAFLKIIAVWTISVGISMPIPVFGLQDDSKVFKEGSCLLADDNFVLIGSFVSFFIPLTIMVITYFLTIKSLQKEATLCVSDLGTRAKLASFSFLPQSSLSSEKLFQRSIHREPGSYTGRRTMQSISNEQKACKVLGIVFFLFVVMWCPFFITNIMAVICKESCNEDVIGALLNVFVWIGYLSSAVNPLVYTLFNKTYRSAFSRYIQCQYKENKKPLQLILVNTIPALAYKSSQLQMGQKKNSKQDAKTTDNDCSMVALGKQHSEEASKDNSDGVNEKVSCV
The method, then: as §1, §2

Another assay addresses T4, 5HT2B (Homo sapiens, UniProt P41595).
T4 construct: purchased Eurofins CEREP SA
The method, then:
as §1, §2

Another assay deals with T5, 5HT3 (Homo sapiens, UniProt P46098).
T5 construct: purchased Eurofins CEREP SA
T5 sequence (P46098 24-478): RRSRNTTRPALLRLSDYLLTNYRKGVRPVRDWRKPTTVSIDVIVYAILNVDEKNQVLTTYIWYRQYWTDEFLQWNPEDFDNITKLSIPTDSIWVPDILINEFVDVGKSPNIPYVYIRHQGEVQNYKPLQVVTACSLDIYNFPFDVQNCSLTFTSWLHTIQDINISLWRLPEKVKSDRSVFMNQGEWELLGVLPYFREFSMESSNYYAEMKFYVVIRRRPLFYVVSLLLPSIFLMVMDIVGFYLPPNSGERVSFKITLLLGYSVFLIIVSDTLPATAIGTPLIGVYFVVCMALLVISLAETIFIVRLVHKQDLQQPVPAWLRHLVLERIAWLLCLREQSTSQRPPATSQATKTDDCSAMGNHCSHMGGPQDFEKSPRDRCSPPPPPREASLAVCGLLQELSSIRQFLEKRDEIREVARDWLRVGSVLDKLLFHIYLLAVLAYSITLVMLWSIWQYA
The method, then: as §1, §2

The next assay concerns the target T6, Androgen receptor (Homo sapiens, UniProt P10275).
T6 construct: purchased Eurofins CEREP SA
T6 sequence (P10275 1-920): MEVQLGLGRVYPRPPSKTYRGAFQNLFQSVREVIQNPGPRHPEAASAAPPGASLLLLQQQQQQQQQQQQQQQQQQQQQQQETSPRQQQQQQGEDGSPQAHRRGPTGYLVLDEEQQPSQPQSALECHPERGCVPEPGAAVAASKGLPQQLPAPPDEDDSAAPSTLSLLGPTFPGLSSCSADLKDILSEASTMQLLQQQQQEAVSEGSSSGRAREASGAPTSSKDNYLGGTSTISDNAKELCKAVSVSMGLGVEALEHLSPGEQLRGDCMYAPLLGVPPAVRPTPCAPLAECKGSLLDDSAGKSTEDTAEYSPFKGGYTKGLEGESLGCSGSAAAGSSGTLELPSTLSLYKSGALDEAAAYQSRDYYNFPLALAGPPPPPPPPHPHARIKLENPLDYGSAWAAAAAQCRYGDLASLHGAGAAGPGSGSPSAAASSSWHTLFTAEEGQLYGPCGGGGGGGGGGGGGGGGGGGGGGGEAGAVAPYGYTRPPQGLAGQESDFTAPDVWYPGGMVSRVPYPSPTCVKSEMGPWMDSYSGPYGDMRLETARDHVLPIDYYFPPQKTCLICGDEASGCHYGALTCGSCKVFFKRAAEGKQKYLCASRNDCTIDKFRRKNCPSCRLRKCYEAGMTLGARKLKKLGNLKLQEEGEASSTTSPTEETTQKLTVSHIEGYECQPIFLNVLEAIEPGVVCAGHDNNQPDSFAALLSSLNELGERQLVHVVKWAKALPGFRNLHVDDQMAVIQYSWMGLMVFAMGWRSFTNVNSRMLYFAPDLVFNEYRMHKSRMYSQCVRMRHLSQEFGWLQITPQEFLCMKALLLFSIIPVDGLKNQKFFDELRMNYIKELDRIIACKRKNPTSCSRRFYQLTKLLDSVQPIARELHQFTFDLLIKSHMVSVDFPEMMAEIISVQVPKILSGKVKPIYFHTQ
On the procedure:
as §1, §2

The target in another assay is T7, Dopamine D2 receptor (Homo sapiens, UniProt P14416).
T7 construct: purchased Eurofins CEREP SA
T7 sequence (P14416 whole entry): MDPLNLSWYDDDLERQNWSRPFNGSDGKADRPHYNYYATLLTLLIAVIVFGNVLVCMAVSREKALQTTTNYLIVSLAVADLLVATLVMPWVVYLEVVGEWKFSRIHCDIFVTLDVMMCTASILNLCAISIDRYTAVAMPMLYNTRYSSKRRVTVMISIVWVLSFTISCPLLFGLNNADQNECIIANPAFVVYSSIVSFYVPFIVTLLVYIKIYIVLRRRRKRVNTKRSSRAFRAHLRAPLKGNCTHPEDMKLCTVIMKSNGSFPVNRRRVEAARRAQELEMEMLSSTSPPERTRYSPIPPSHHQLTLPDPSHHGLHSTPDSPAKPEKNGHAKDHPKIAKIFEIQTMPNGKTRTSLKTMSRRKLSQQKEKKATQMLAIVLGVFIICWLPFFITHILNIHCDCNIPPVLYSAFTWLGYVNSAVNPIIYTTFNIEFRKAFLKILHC
The method, then: as §1, §2

A further assay deals with T8, Estrogen receptor alpha (Homo sapiens, UniProt P03372).
T8 construct: purchased Eurofins CEREP SA
T8 sequence (P03372 whole entry): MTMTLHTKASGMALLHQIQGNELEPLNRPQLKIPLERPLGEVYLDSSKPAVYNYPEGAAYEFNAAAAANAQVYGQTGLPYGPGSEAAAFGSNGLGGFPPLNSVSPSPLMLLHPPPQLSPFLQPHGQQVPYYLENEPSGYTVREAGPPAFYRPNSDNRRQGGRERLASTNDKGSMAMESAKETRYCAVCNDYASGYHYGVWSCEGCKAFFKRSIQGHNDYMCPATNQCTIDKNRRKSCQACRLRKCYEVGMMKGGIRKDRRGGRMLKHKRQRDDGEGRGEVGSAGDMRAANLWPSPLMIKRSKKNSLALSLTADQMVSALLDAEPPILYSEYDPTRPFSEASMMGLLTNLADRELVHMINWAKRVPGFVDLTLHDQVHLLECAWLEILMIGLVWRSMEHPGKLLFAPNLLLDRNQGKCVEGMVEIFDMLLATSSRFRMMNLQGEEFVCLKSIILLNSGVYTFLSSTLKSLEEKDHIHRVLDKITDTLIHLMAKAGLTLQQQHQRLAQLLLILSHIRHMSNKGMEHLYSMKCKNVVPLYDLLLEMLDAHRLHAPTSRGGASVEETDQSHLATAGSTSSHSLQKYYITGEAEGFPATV
The method, then:
as §1, §2

The target of the next assay is T9, Kappa opioid receptor (Homo sapiens, UniProt P41145).
T9 construct: purchased Eurofins CEREP SA
T9 sequence (P41145 whole entry): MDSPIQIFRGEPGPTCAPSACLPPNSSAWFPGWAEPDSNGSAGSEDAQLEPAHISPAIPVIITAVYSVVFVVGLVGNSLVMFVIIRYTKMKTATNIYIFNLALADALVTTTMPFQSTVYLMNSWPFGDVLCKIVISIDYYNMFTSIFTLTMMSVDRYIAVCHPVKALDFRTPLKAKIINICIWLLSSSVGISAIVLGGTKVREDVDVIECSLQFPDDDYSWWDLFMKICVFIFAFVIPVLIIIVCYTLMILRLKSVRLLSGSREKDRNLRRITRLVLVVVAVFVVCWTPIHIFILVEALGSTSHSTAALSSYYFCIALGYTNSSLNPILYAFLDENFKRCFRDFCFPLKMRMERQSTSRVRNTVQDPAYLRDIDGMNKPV
The method, then: as §1, §2

A further assay has as its target T10, Mu opioid receptor (Homo sapiens, UniProt P35372).
T10 construct: purchased Eurofins CEREP SA
The method, then:
as §1, §2

In the next assay the target is T11, Muscarinic receptor M1 (Homo sapiens, UniProt P11229).
T11 construct: purchased Eurofins CEREP SA
T11 sequence (P11229 1-460): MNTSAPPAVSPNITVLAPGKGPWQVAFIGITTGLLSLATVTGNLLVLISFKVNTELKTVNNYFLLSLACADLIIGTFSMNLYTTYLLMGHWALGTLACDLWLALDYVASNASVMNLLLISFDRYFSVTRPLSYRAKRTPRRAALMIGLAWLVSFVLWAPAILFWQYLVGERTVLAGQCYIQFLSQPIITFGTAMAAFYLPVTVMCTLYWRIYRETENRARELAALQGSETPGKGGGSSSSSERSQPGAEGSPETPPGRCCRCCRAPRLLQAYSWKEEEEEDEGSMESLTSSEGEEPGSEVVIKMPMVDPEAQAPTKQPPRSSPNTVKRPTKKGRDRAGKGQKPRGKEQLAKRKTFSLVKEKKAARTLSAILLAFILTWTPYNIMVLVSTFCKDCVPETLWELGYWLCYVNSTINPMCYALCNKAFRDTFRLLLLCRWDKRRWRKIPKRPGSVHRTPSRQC
The method, then: as §1, §2

A further assay concerns the target T12, Prostaglandin F receptor (Homo sapiens, UniProt P43088).
T12 construct: purchased Eurofins CEREP SA
On the procedure: as §1, §2

T1 sequence (P31645 whole entry): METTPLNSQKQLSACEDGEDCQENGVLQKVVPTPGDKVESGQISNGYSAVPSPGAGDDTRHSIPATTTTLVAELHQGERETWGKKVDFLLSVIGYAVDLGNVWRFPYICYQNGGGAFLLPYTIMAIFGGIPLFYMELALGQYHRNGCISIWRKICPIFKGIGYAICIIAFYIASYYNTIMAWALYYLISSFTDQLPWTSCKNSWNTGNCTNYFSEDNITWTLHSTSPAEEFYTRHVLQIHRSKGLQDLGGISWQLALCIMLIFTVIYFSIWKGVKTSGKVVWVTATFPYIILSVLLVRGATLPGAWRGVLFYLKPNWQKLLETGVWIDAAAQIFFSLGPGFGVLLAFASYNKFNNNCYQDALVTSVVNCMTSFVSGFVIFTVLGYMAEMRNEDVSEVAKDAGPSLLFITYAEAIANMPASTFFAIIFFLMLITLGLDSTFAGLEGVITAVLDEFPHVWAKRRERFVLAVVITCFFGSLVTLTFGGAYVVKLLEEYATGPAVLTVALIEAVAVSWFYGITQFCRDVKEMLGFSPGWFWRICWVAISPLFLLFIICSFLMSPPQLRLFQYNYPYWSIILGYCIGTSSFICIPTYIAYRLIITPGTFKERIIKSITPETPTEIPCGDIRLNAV
T4 sequence (P41595 whole entry): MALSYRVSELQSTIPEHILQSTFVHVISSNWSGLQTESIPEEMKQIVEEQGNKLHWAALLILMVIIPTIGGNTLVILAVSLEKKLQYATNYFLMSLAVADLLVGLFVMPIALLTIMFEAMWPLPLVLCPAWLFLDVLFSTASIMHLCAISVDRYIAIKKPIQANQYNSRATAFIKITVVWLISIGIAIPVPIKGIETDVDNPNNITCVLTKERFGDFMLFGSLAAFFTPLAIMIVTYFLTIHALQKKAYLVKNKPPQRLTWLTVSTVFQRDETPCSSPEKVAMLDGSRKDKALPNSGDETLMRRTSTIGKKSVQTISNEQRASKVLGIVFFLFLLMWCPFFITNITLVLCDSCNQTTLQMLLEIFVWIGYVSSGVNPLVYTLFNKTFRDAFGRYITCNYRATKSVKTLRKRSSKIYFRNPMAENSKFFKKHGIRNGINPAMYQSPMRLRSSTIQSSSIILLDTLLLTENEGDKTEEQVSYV
T12 sequence (P43088 whole entry): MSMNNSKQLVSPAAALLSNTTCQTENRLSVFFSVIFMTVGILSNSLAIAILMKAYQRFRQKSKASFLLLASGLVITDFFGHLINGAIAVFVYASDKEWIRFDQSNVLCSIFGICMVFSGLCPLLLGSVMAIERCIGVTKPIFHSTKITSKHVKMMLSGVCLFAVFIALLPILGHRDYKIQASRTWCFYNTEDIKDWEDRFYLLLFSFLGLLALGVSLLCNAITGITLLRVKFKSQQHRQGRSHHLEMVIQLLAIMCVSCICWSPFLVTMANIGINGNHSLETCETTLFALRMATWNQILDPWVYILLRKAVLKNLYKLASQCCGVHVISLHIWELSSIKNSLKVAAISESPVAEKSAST
T10 sequence (P35372 whole entry): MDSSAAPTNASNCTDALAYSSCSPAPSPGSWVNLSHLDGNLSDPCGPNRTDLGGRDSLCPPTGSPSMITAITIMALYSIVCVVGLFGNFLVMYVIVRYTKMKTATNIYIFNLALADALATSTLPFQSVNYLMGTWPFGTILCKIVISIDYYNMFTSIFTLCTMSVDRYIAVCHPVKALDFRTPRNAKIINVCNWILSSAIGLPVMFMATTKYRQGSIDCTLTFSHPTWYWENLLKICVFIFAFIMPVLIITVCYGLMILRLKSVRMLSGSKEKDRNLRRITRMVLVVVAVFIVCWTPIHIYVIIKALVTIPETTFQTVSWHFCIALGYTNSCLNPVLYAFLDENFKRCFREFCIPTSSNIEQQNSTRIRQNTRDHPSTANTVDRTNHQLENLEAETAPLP

Regarding `CN1C(=O)[C@H](CCCCN)NC(=O)[C@H](CCCN)NCc2cccnc2Sc2c(Cl)ccc(-c3ccc(C(=O)O)cc3)c2CNC(=O)[C@@H]1Cc1c[nH]c2ccccc12` [RO7202110], the inhibition (commonly the drop in the measured response relative to a control, in per cent) at 10 µM on 5-HT transporter (10 µM, duplicates) turned out to be 13%; on 5HT1A (10 µM, duplicates), 13%; at 5HT2A (10 µM, duplicates) it was 4%; at 5HT2B (10 µM, duplicates) it was 14%; on 5HT3 (10 µM, duplicates), 6%; on Androgen receptor (10 µM, duplicates) it was 3%. Besides, the inhibition at 10 µM at Dopamine D2 receptor (10 µM, duplicates) was 28%; on Estrogen receptor alpha (10 µM, duplicates), -7%; at Kappa opioid receptor (10 µM, duplicates), 32%; on Mu opioid receptor (10 µM, duplicates), 26%; on Muscarinic receptor M1 (10 µM, duplicates), -6%; on Prostaglandin F receptor (10 µM, duplicates), -3%.

`CN1C(=O)[C@H](CCCN)NC(=O)[C@H](CCCN)NCc2ccccc2Sc2ccccc2CNC(=O)[C@@H]1Cc1c[nH]c2ccccc12` [RO7036668]: the inhibition at 10 µM at 5-HT transporter (10 µM, duplicates) was 13%; at 5HT1A (10 µM, duplicates) it was 33%; at 5HT2A (10 µM, duplicates) it was -2%; on 5HT2B (10 µM, duplicates) it was 27%; on 5HT3 (10 µM, duplicates), 6%; at Androgen receptor (10 µM, duplicates), 6%. The inhibition at 10 µM was 74% on Dopamine D2 receptor (10 µM, duplicates); 24% at Estrogen receptor alpha (10 µM, duplicates); 69% on Kappa opioid receptor (10 µM, duplicates); 63% on Mu opioid receptor (10 µM, duplicates); 26% on Muscarinic receptor M1 (10 µM, duplicates); 2% on Prostaglandin F receptor (10 µM, duplicates).

With `CN1C(=O)[C@H](CCCCN)NC(=O)[C@H](CCCN)NCc2cccnc2Sc2c(Cl)ccc(Cl)c2CNC(=O)[C@@H]1Cc1c[nH]c2ccccc12` [RO7075573], the inhibition at 10 µM was 16% on 5-HT transporter; 11% at 5HT1A; -17% at 5HT2A; 1% at 5HT2B; 8% at 5HT3; -4% on Androgen receptor. In addition, the inhibition at 10 µM was 28% at Dopamine D2 receptor; -3% on Estrogen receptor alpha; 26% on Kappa opioid receptor; 21% on Mu opioid receptor; 20% on Muscarinic receptor M1; -4% on Prostaglandin F receptor.

Take `CN1C(=O)[C@H](CCCCN)NC(=O)[C@H](CCCN)NCc2cccnc2Sc2cccc(-c3ccc(C(=O)O)cc3)c2CNC(=O)[C@@H]1Cc1c[nH]c2ccccc12` [zosurabalpin]: the inhibition at 10 µM on 5-HT transporter is 2%; at 5HT1A, 0%; at 5HT2A it was 3%; on 5HT2B, -1%; at 5HT3, 3%; on Androgen receptor, -5%. Also, the inhibition at 10 µM at Dopamine D2 receptor was 14%; on Estrogen receptor alpha, 7%; on Kappa opioid receptor, 9%; at Mu opioid receptor, 4%; on Muscarinic receptor M1, -3%; on Prostaglandin F receptor it was 5%.

The record behind these values is publication PMC10794144, “A novel antibiotic class targeting the lipopolysaccharide transporter” (Nature, 2024).
